Test results reported in article PMC6609562, “A new split‐luciferase complementation assay identifies pentachlorophenol as an inhibitor of apoptosome formation” (FEBS Open Bio, 2019).
Read-outs that look alike come from different tables or passages of the source.

Tests used:
[1] = tested on: T1, apoptosome (Nluc/Apaf-1 + Cluc/Apaf-1, cytochrome c, dATP); assay: split-luciferase complementation in S-100 extract; type: biochemical, Homo sapiens; conditions: 1.6 uM cytochrome c, 1 mM dATP, 25 °C; unreliable (reporter interference)
T1 construct: gene APAF1; Apaf-1 XL fused by Gly/Ser linker to firefly luciferase fragments (Nluc 1-416; Cluc 394-550 in legend, 395-550 in methods), expressed in HEK 293, S-100 extract
Text: split-luciferase complementation in S-100 extract on apoptosome (Nluc/Apaf-1 + Cluc/Apaf-1, cytochrome c, dATP)

[2] = tested on: T1, apoptosome (Nluc/Apaf-1 + Cluc/Apaf-1, cytochrome c, dATP); assay: split-luciferase complementation in S-100 extract; type: biochemical, Homo sapiens
[3] = tested on: T2, cytochrome c; assay: thermal stability shift, soluble protein by Coomassie SDS-PAGE; type: binding; conditions: destabilization at 58 °C, 1 mg/mL cytochrome c
T2 construct: gene CYCS

[4] = biological target: T3, Cluc-Apaf1 (Apaf-1 XL fused to the C-terminal fragment of firefly luciferase) (human), O14727; assay: split reporter (BiFC, NanoBiT); split firefly luciferase complementation; ice-cold S-100 extracts of Nluc-Apaf1 and Cluc-Apaf1 cells mixed 1:1, with and without 1.6 μM cytochrome c and 1 mM dATP (cytochrome c titrated in one experiment); One-Glo Luciferase Assay System, light read at 25 °C over 15 min; conditions: remark: other sources report otherwise
T3 chain: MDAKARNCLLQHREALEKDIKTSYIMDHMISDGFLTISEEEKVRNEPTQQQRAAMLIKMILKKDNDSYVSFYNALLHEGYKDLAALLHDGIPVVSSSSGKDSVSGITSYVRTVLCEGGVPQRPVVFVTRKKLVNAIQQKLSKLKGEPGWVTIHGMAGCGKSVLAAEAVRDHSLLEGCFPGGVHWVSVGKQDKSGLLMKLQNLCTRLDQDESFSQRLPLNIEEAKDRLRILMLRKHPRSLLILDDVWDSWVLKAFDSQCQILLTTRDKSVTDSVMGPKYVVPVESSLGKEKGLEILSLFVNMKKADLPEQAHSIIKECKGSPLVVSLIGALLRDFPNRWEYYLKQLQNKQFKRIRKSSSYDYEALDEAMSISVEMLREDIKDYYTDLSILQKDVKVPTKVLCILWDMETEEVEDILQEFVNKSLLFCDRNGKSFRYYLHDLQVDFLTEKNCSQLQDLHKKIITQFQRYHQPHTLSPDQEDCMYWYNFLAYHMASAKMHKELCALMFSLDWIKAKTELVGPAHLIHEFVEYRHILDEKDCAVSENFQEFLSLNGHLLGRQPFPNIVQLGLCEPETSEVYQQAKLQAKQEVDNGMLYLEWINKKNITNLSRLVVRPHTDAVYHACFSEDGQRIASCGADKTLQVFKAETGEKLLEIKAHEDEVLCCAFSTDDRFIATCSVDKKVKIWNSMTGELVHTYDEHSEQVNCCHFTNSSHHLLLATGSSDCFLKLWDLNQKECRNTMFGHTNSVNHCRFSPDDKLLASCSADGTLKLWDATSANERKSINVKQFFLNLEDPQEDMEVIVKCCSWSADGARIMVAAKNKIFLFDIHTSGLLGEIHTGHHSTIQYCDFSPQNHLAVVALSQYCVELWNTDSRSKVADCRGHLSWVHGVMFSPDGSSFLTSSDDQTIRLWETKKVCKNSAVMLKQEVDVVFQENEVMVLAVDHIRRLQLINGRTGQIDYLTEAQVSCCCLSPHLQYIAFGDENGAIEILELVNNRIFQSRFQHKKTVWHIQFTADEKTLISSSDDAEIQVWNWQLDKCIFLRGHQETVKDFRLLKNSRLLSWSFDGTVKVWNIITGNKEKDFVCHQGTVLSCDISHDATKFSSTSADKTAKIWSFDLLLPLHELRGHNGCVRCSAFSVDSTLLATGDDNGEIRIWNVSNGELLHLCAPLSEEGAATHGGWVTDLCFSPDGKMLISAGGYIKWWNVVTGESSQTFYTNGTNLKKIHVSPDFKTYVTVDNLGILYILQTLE

Molecule: Clc1nc(Cl)nc(Nc2ccccc2Cl)n1 [Anilazine]
- IC50 (mM) / S. luc [1]: 2.99 mM

Molecule: CN(C)C1CSSSC1 [Thiocyclam]
- IC50 (mM) / S. luc [1]: 0.20 mM

Molecule: CN(C)C(=S)SSC(=S)N(C)C [Thiram]
- IC50 (mM) / S. luc [1]: 1.38 mM

Molecule: O=C(Nc1cccc(C(F)(F)F)c1)Nc1cc(Cl)ccc1C(=O)O [NS3694, 4‐chloro‐2‐[[3‐(trifluoromethyl)phenyl]carbamoylamino]benzoic acid]
- IC50 ([2]; diluted extract, cytochrome c and dATP added, read-out: IC50): ~0.17 mM

Molecule: Oc1c(Cl)c(Cl)c(Cl)c(Cl)c1Cl [Pentachlorophenol]
- IC50 ([2]; 1.6 uM cytochrome c, 1 mM dATP, 25 °C, site assigned to cytochrome c, read-out: IC50 (mM) / S. luc): 0.17 mM
- EC50 [3]: ~600 µM

B1: Nluc-Apaf1 (Apaf-1 XL fused to the N-terminal fragment of firefly luciferase), O14727-1 1-1248 (natural protein)
chain: T3 chain
- EC50 of cytochrome c for split luciferase activity [4]: 0.15 µM
